# Laboratory results published in patent publication US20090029366A1 (priority 2007, published 2009).
# Biological target: T1, human HCN1 (Homo sapiens, UniProt O60741)
# T1 construct: expressed in transfected cells; host or cells: HEK-293H
# T1 sequence (O60741 1-890): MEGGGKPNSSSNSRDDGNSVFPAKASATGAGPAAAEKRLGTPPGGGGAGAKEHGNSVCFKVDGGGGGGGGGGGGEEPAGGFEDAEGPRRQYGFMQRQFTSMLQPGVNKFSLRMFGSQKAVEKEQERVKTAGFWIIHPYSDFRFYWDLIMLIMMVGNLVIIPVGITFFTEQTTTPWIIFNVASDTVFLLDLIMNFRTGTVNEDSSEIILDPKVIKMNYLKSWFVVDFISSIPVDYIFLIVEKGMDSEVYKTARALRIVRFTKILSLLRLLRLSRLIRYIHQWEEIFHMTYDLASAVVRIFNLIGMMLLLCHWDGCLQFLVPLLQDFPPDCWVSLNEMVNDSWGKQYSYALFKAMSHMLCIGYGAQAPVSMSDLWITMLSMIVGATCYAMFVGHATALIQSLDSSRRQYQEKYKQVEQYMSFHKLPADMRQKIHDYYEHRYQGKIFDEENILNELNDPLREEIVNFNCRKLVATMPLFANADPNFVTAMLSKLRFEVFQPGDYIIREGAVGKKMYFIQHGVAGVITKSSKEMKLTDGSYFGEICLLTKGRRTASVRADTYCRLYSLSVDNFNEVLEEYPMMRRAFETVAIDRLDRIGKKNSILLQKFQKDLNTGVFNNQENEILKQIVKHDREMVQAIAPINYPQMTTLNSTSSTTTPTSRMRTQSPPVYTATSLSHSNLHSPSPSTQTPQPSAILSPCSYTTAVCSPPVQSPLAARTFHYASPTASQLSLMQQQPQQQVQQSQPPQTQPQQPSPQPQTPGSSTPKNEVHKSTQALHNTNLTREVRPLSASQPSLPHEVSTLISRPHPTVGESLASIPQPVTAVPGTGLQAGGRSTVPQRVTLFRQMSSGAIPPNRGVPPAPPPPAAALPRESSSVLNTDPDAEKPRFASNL
# Assay: MPSD FLIPR 384 well hyperpolarization assay, HCN1
# Assay type: cell-based
# Protocol: HEK-293H cells stably expressing human HCN1, HCN2, or HCN3 channel were plated at a density of 45-50×10^3 cells/well in a 384 well format fluorescent imaging plate reader system (FLIPR®^384) in 50 μl/well of DMEM supplemented with 10% fetal bovine serum and penicillin/streptomycin. The cells were cultured for 24-48 hours in a 5% CO2/air humidified incubator at 37° C.
# The cells seeded on the microtiter plates were incubated in 50 μl HBSS, as described in Example 2. Optionally, HBSS was supplemented with about 25 mM of KCl to further enhance the assay window. A membrane potential sensitive dye (MPSD), Component-A of the Membrane Potential Assay Kit, (Product No. R-8034, Molecular Devices Corporation of Sunnyvale, Calif.) was dissolved in the HBSS solution (1 vial/0.5 L). The excess saline was removed to fit the residual volume of about 1 μl to 5 μl. […]
# Membrane potentials were measured at room temperature (21°-23°) for each of the above-described saline conditions using a fluorescent imaging plate reader system (FLIPR®, Molecular Devices of Sunnyvale, Calif.). […]
# HEK-293H cells stably expressing human HCN1 channel were plated as described in Example 3 above. […] The change in fluorescence (ΔF) was measured for a total assay time of about 180 seconds. […]
smiles,measurement,setting,value
CCN(c1ccccc1)c1cc(=NC)n(C)c(C)n1.Cl [ZD7288],blockade of hyperpolarization (change in fluorescence),"30 μM ZD7288, HEK-293H HCN1, about 180 seconds",effectively blocked hyperpolarization
same,"blockade of hyperpolarization (change in fluorescence), FIG. 5 legend","50 μM ZD7288, cells expressing HCN1",effectively blocked hyperpolarization
